Drawing on US8263617B2, “Chromen-2-one derivatives and their use as monoamine neurotransmitter re-uptake inhibitors” (Neurosearch A/S, priority 2006, dated 2012), this text covers IC50 for three molecules.

Counter-ions that a name gives are not always drawn.

Common to all, as to type: biochemical
Experiment [1] has as its target T1, reuptake of dopamine (DA) in synaptosomes (Rattus norvegicus, UniProt P23977).
T1 construct: in synaptosomes as described in WO 97/16451; from tissue
Nature of the experiment: Inhibition of DA reuptake in synaptosomes. As to conditions: 3H-DA, read-out: DA-uptake IC50. As to the method:
(§1) A number of compounds were tested for their ability to inhibit the reuptake of the monoamine neurotransmitters dopamine (DA), noradrenaline (NA) and serotonine (5-HT) in synaptosomes as described in WO 97/16451.
(§2) The test values are given as IC50 (the concentration (μM) of the test substance which inhibits the specific binding of ^3H-DA, ^3H-NA, or ^3H-5-HT by 50%).

In experiment [2] the target is T2, reuptake of serotonine (5-HT) in synaptosomes (Rattus norvegicus, UniProt P31652).
T2 construct: in synaptosomes as described in WO 97/16451; from tissue
T2 sequence (P31652 whole entry): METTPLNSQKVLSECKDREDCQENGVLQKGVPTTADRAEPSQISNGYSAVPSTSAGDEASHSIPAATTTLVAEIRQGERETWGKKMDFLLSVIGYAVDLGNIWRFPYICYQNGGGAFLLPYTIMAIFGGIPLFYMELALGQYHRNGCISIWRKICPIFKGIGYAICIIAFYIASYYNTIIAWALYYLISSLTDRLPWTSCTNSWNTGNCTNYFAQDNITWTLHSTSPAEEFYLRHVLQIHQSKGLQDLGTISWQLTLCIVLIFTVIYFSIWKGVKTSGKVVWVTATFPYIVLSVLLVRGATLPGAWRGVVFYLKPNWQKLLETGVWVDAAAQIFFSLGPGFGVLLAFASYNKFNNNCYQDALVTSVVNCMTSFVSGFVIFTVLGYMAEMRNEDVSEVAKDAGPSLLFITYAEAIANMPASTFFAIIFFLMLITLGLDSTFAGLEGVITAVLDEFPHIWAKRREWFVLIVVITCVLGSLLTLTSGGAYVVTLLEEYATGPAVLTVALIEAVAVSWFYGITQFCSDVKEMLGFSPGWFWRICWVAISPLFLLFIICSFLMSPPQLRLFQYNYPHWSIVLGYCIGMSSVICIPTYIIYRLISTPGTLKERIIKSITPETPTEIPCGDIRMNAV
Nature of the experiment: Inhibition of 5-HT reuptake in synaptosomes. As to conditions: 3H-5-HT, read-out: 5-HT-uptake IC50. As to the method: as §1, §2

Experiment [3] has as its target T3, reuptake of noradrenaline (NA) in synaptosomes (Rattus norvegicus, UniProt Q63380).
T3 construct: in synaptosomes as described in WO 97/16451; from tissue
The experiment is described as follows: Inhibition of NA reuptake in synaptosomes. Conditions: 3H-NA, read-out: NA-uptake IC50. The protocol: as §1, §2

T1 sequence (P23977 whole entry): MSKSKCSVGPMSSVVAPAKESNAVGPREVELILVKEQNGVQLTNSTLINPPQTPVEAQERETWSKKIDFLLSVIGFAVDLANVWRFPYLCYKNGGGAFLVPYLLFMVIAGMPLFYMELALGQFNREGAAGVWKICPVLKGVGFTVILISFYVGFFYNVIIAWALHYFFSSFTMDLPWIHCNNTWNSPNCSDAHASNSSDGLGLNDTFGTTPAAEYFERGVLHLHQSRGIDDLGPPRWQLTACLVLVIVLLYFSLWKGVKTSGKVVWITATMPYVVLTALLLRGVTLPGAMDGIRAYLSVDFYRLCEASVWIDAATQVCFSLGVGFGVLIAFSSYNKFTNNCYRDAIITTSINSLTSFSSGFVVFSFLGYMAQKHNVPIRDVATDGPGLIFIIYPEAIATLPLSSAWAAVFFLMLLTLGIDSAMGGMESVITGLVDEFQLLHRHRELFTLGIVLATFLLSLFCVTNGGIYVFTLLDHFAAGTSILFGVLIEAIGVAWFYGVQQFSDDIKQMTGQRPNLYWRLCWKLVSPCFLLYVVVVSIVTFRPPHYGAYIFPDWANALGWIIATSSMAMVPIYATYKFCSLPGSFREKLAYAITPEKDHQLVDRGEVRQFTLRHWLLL
T3 sequence (Q63380 1-617): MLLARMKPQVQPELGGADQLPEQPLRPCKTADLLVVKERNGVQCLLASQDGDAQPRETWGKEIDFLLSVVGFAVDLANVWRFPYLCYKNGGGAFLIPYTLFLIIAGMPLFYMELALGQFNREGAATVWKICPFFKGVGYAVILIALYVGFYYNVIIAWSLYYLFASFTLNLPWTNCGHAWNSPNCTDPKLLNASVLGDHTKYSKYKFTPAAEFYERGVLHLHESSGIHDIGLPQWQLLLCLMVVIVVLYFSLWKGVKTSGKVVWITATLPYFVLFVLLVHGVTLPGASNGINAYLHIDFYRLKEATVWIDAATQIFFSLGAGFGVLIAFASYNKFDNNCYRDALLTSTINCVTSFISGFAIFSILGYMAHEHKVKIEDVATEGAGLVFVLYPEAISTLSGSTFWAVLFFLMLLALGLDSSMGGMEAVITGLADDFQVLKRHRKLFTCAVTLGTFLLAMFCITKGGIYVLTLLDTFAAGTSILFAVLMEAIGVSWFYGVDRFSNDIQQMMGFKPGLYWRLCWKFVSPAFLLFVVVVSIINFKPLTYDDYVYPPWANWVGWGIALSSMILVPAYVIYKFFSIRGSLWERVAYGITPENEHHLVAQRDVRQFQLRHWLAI

Broadly, the IC50 is the concentration that gives 50% inhibition. In the case of `O=c1oc2cc(OC3CC4CCC(C3)N4)ccc2cc1-c1ccco1` [1st Compound of Method A, exo-7-[(1S,3S,5R)-(8-Aza-bicyclo[3.2.1]oct-3-yl)oxy]-3-furan-2-yl-chromen-2-one hydrochloric acid salt], the IC50 in experiment [1] came to 34 nM; in experiment [2] it was 7.7 nM; in experiment [3], 4.3 nM.
For `O=c1oc2cc(OC3CC4CCC(C3)N4)ccc2cc1-c1ccoc1` [2nd Compound of Method A, exo-7-[(1S,3S,5R)-(8-Aza-bicyclo[3.2.1]oct-3-yl)oxy]-3-furan-3-yl-chromen-2-one hydrochloric acid salt] the same measures were 9.9 nM, 10 nM and 0.48 nM.
On the same counts, the results for `O=c1oc2cc(OC3CC4CCC(C3)N4)ccc2cc1-c1cc2ccccc2o1` [3rd Compound of Method A, exo-7-[(1S,3S,5R)-(8-Aza-bicyclo[3.2.1]oct-3-yl)oxy]-3-benzofuran-2-yl-chromen-2-one hydrochloric acid salt] are 700 nM, 9.1 nM and 840 nM.
